The values below come from patent US10889607B2, “Sialic acid analogs” (Ultragenyx Pharmaceutical Inc., priority 2011, dated 2021).

Read-outs that look alike come from different tables or passages of the source.

Series [1] is described as follows: Sialic acid/prodrug single dose PO crossover pharmacokinetics study. Format: in vivo, cynomolgus monkeys. Conditions: for peak serum concentration (Cmax): serum sialic acid, mean n=3, single 100 mg/kg PO, fasted cynomolgus monkeys; for extent of the absorption: sialic acid API vs prodrug, single 100 mg/kg PO, cynomolgus monkeys. The source says:
Example 4. Sialic Acid/Prodrug Single Dose PO Crossover Pharmacokinetics Study in Cynomolgus Monkeys
A single oral dose crossover pharmacokinetic study of sialic acid (API) and prodrug (Compound 1—a valine ester of sialic acid as described above) was run in fasted cynomolgus monkeys (n=3). For this study, it was essential that the GI tract of the in vivo model have some similarities to human metabolism in order for the Pep Ti transporter system to be present, thus monkeys were chosen since they carry the same transporter in the gut as humans.
The 100 mg/kg dose level chosen was based on what is known for dosing of sialic acid which has passed complete toxicological evaluation and is safe up to 2,000 mg/kg NOAEL in dogs and rats. On Day 1, three female cynomolgus monkeys were dosed with 100 mg/kg sialic acid (API) and on Day 8 the same three cynomolgus monkeys were dosed with 100 mg/kg of the prodrug. Serum was collected at the following timepoints: predose, then 5 min, 15 min, 30 min, 1 hr, 2 hrs, 4 hrs, 8 hrs, 12 hrs and 24 hrs postdose. Urine samples were collected predose overnight, then at intervals 0-4 hrs, 4-8 hrs, 8-12 hrs and 12-24 hrs post dose. The data in FIG. 2A show the mean absorption values (n=3) of serum sialic acid on Days 1 and 8. The prodrug peak serum concentration is earlier (1 hr) than sialic acid API (2 hrs). […] The pharmacokinetic data in FIGS. 2B and 2C show group averages of sialic acid concentrations on Days 1 and 8.

The conditions of series [2]: dog, in vivo; cited from earlier work.
The conditions of series [3]: rat, in vivo; cited from earlier work.

`CC(=O)N[C@H]1[C@H]([C@H](O)[C@H](O)CO)OC(O)(C(=O)O)C[C@@H]1O` (stereo partly drawn) [sialic acid, N-acetylneuraminic acid]: in series [1], the “peak serum concentration (Cmax)” value worked out at 1623 ng/mL and the “extent of the absorption” value is on record as “similar”. Moreover, the NOAEL in series [2] is on record as 2,000 mg/kg. For the same compound, in series [3], the NOAEL is 2,000 mg/kg.
`CC(=O)NC1C(O)CC(O)(C(=O)O)OC1C(O)C(O)COC(=O)C(N)C(C)C` (stereo not drawn) [Compound 1, 5-Acetylamino-6-[3-(2-amino-3-methyl-butyryloxy)-1,2-dihydroxy-propyl]-2,4-dihydroxy-tetrahydro-pyran-2-carboxylic acid]: in series [1], the “peak serum concentration (Cmax)” value was found to be 857 ng/mL and the “extent of the absorption” value is “similar”.
